From PubChem BioAssay (NCI)
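All cell lines were grown in 96-well plates and treated with compound for 48 hours. GI50 is the concentration that inhibits growth by half. TGI: concentration producing complete growth inhibition.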

What was measured:
Experiment in all cases: inhibition of tumour cell growth, NCI panel, 48 h
[1] = system: HCT-116 colon
[2] = system: HCT-15 colon
[3] = system: UO-31 renal
[4] = system: LOX IMVI melanoma
[5] = system: MCF7 breast
[6] = system: OVCAR-8 ovarian
[7] = system: HL-60(TB) leukemia
[8] = system: SNB-75 CNS
[9] = system: COLO 205 colon
[10] = system: OVCAR-4 ovarian

| SMILES | GI50 [1] [µM] | TGI [1] [µM] | GI50 [2] [µM] | TGI [2] [µM] | GI50 [3] [µM] | TGI [3] [µM] | GI50 [4] [µM] | TGI [4] [µM] | GI50 [5] [µM] | TGI [5] [µM] | GI50 [6] [µM] | TGI [6] [µM] | GI50 [7] [µM] | TGI [7] [µM] | GI50 [8] [µM] | TGI [8] [µM] | GI50 [9] [µM] | TGI [9] [µM] | GI50 [10] [µM] | TGI [10] [µM] |
| --- | --- | --- | --- | --- | --- | --- | --- | --- | --- | --- | --- | --- | --- | --- | --- | --- | --- | --- | --- | --- |
| COc1ccc2c(c1)[nH]c(=O)c1c3cc(OC)c(OC)cc3cn21 | < 0.01 | 1.19 | < 0.01 | 1.19 | < 0.01 | 17.4 | < 0.01 | 1.69 | 0.0323 | 1.28 | 0.0193 | 14.9 | < 0.01 | < 0.0104 | < 0.01 | 19.7 | < 0.01 | 0.0635 | 0.0384 | 4.72 |
| O=C(c1nn(-c2ccc(Cl)cc2)cc1O)n1nc(C(F)(F)F)cc1-c1ccccc1 | 1.91 | > 100 | 1.13 | > 100 | 2.9 | > 100 | 1.88 | > 100 | 3.38 | > 100 | 1.87 | > 100 | 2.42 | > 100 | 0.816 | > 100 | 2.97 | > 44.2 | 2.43 | > 100 |
| CCCCCCCCCCC[C@@H](C[C@H]1OC(=O)[C@H]1CCCCCC)OC(=O)[C@@H](CC(C)C)NC=O | 3.14 | 19.3 | 2.65 | 46.8 | 2.52 | 59.6 | 1.65 | 9.6 | 3.07 | 13.8 | 2.5 | 15.7 | 1.75 | 4.34 | 2.55 | 12.6 | 11.6 | 32.1 | 3.6 | 37.7 |
| COc1ccc(C(=O)/C=C/c2cc(-c3ccc4c(c3)OCO4)n[nH]2)cc1OC | 2.43 | 7.99 | 2.81 | > 100 | 2.32 | 10.1 | 1.97 | 4.08 | 3.27 | 16.8 | 2.15 | 5.82 | 2.82 | 11.8 | 1.98 | 7.57 | 3.84 | 14 | 2.11 | 40.3 |
| O=C1CCSC(=S)N1c1ccc(Br)c(Cl)c1 | – | > 100 | – | 40.2 | – | 82 | – | 50.4 | – | 48.6 | – | 92.1 | – | 75.9 | – | 52.6 | – | 41.2 | – | 50.3 |
| CC(C)=CC(=O)N[C@@H]1CC2CCC3C(CC[C@@]4(C)C3CC[C@@H]4C(C)N(C)C)[C@@]2(C)C[C@@H]1O (stereo not given in full) | 1.63 | 5.27 | 1.39 | 5.01 | 1.62 | 4.43 | 1.54 | 3.97 | 2.95 | 21.1 | 12.8 | > 53.2 | 1.61 | 6.14 | 5.97 | 23.3 | 1.79 | 3.71 | 4.32 | > 62 |
| CCCC(C)c1c(Cl)nc(Cl)nc1Cl (stereo not given) | – | 3.66 | – | 64.4 | – | 34.7 | – | > 100 | – | 26.3 | – | 55.9 | – | > 100 | – | 27.5 | – | 15.8 | – | 44.7 |
| Cc1cn([C@H]2C[C@H](O)[C@@H](CO)O2)c(=O)nc1N | – | > 100 | – | > 100 | – | > 100 | – | > 100 | – | > 100 | – | > 100 | – | > 100 | – | > 100 | – | > 100 | – | > 100 |
| CCCCCCCCCCCC1=NC(C)(C)CN1CC(C)O (stereo not given) | 2.06 | 4.9 | 1.95 | 4.75 | 4.75 | 18.7 | 1.85 | 4.42 | 2.05 | 4.77 | 8.89 | 25 | 2.44 | 5.68 | 9.26 | 21.3 | 1.68 | 3.05 | 10.6 | 22.4 |
| COc1cc(C(=O)O/N=C(\N)Cc2cccc3ccccc23)cc(OC)c1OC | 3.13 | 13 | 6.41 | 21.4 | 5.26 | 19.6 | 3.41 | 16.9 | 2.57 | 8.81 | 11.5 | 43.8 | 5.35 | 36.5 | 2.8 | 15.6 | 12.2 | 28.1 | 10.6 | 26 |
| Oc1ccc(Oc2cnc3cc(Cl)ccc3n2)cc1 | 37.1 | > 100 | 33.7 | > 100 | 3.88 | 94 | 34.9 | > 100 | 38.1 | > 100 | > 100 | > 100 | 2.25 | > 100 | 26 | > 100 | 92.4 | > 100 | 28.2 | > 100 |
